This is an account of results in ChEMBL document CHEMBL5442219.

What all share (details): Compound concentration 10 µM
The target in experiment [1] is T1, Alpha-1B adrenergic receptor (Homo sapiens) (UniProt P35368).
T1 sequence (whole entry): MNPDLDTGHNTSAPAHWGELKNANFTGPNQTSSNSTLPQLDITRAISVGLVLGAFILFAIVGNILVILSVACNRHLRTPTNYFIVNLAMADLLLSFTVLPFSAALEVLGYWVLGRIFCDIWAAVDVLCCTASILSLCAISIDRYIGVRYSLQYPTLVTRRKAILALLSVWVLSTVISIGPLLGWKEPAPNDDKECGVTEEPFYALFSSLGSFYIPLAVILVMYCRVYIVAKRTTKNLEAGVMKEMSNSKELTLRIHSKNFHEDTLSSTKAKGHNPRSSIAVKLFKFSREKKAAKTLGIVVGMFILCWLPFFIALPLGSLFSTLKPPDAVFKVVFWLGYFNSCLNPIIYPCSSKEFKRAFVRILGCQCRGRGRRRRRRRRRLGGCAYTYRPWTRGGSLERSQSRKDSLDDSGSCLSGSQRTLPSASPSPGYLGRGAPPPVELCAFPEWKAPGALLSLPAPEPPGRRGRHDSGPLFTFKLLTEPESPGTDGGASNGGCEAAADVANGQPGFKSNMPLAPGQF
Description: PDSP Primary Binding target: ADRA1B - Compounds are tested at 10 uM concentration, plate are incubated at room temperature in the dark for 90 minutes. Reaction are stopped by vacuum filtration onto 0.3% polyethyleneimine soaked filter mats using Filtermate harvester. Scintilation cocktail is then melted onto microwave-dried filters on a hot plate and the radio activity is counted in Microbia counter.

Experiment [2] deals with T2, Alpha-1D adrenergic receptor (Homo sapiens) (UniProt P25100).
T2 sequence (whole entry): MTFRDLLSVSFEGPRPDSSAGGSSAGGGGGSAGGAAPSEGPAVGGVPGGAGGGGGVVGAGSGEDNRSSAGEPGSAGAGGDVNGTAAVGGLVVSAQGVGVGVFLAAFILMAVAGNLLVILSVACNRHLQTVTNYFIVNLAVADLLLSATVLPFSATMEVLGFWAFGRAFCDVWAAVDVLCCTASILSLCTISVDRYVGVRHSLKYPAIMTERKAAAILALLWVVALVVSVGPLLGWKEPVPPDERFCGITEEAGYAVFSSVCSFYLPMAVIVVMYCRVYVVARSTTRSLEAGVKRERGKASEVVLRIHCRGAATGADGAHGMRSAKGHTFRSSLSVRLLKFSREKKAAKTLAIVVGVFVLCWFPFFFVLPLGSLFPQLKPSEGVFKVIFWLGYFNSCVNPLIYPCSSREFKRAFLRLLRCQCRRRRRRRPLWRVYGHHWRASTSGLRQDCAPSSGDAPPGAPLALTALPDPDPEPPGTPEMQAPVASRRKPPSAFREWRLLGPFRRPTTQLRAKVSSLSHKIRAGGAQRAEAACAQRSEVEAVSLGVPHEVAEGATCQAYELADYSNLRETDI
Description: PDSP Primary Binding target: ADRA1D - Compounds are tested at 10 uM concentration, plate are incubated at room temperature in the dark for 90 minutes. Reaction are stopped by vacuum filtration onto 0.3% polyethyleneimine soaked filter mats using Filtermate harvester. Scintilation cocktail is then melted onto microwave-dried filters on a hot plate and the radio activity is counted in Microbia counter.

Experiment [3] concerns the target Beta-1 adrenergic receptor (Homo sapiens) (UniProt P08588).
Description: PDSP Primary Binding target: ADRB1 - Compounds are tested at 10 uM concentration, plate are incubated at room temperature in the dark for 90 minutes. Reaction are stopped by vacuum filtration onto 0.3% polyethyleneimine soaked filter mats using Filtermate harvester. Scintilation cocktail is then melted onto microwave-dried filters on a hot plate and the radio activity is counted in Microbia counter.
Experiment [4] concerns the target Beta-2 adrenergic receptor (Homo sapiens) (UniProt P07550).
Description: PDSP Primary Binding target: ADRB2 - Compounds are tested at 10 uM concentration, plate are incubated at room temperature in the dark for 90 minutes. Reaction are stopped by vacuum filtration onto 0.3% polyethyleneimine soaked filter mats using Filtermate harvester. Scintilation cocktail is then melted onto microwave-dried filters on a hot plate and the radio activity is counted in Microbia counter.
Experiment [5] deals with T3, Muscarinic acetylcholine receptor M4 (Homo sapiens) (UniProt P08173).
T3 sequence (whole entry): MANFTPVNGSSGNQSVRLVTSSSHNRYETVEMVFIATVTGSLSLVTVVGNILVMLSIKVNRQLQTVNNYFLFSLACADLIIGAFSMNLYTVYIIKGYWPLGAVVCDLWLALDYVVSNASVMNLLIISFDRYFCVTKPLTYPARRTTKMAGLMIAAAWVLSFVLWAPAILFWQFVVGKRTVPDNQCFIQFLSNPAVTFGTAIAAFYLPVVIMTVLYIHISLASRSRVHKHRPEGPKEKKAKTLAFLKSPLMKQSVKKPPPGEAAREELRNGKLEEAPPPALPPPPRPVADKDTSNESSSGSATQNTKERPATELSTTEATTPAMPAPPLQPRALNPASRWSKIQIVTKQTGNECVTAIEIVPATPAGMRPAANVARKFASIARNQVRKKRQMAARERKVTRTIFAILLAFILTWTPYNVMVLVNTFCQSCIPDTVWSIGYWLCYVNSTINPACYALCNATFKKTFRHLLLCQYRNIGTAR
Description: PDSP Primary Binding target: CHRM4 - Compounds are tested at 10 uM concentration, plate are incubated at room temperature in the dark for 90 minutes. Reaction are stopped by vacuum filtration onto 0.3% polyethyleneimine soaked filter mats using Filtermate harvester. Scintilation cocktail is then melted onto microwave-dried filters on a hot plate and the radio activity is counted in Microbia counter.

The target in experiment [6] is D(3) dopamine receptor (Homo sapiens) (UniProt P35462).
Description: PDSP Primary Binding target: DRD3 - Compounds are tested at 10 uM concentration, plate are incubated at room temperature in the dark for 90 minutes. Reaction are stopped by vacuum filtration onto 0.3% polyethyleneimine soaked filter mats using Filtermate harvester. Scintilation cocktail is then melted onto microwave-dried filters on a hot plate and the radio activity is counted in Microbia counter.
Experiment [7] deals with T4, D(4) dopamine receptor (Homo sapiens) (UniProt P21917).
T4 sequence (whole entry): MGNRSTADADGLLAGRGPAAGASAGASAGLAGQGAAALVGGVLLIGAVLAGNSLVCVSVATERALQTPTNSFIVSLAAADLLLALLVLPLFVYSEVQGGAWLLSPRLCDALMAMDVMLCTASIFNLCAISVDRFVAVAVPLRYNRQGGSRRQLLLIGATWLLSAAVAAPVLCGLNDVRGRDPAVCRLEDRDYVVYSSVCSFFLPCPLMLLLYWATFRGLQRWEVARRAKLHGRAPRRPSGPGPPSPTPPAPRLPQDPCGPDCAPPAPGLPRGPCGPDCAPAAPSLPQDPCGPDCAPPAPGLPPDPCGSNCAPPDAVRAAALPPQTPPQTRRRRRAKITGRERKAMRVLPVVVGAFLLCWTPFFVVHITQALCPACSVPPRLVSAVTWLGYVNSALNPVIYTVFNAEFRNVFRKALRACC
Description: PDSP Primary Binding target: DRD4 - Compounds are tested at 10 uM concentration, plate are incubated at room temperature in the dark for 90 minutes. Reaction are stopped by vacuum filtration onto 0.3% polyethyleneimine soaked filter mats using Filtermate harvester. Scintilation cocktail is then melted onto microwave-dried filters on a hot plate and the radio activity is counted in Microbia counter.

Experiment [8] deals with D(1B) dopamine receptor (Homo sapiens) (UniProt P21918).
Description: PDSP Primary Binding target: DRD5 - Compounds are tested at 10 uM concentration, plate are incubated at room temperature in the dark for 90 minutes. Reaction are stopped by vacuum filtration onto 0.3% polyethyleneimine soaked filter mats using Filtermate harvester. Scintilation cocktail is then melted onto microwave-dried filters on a hot plate and the radio activity is counted in Microbia counter.
Experiment [9] addresses Histamine H3 receptor (Homo sapiens) (UniProt Q9Y5N1).
Description: PDSP Primary Binding target: HRH3 - Compounds are tested at 10 uM concentration, plate are incubated at room temperature in the dark for 90 minutes. Reaction are stopped by vacuum filtration onto 0.3% polyethyleneimine soaked filter mats using Filtermate harvester. Scintilation cocktail is then melted onto microwave-dried filters on a hot plate and the radio activity is counted in Microbia counter.
For experiment [10], the target named is T5, 5-hydroxytryptamine receptor 1A (Homo sapiens) (UniProt P08908).
T5 sequence (whole entry): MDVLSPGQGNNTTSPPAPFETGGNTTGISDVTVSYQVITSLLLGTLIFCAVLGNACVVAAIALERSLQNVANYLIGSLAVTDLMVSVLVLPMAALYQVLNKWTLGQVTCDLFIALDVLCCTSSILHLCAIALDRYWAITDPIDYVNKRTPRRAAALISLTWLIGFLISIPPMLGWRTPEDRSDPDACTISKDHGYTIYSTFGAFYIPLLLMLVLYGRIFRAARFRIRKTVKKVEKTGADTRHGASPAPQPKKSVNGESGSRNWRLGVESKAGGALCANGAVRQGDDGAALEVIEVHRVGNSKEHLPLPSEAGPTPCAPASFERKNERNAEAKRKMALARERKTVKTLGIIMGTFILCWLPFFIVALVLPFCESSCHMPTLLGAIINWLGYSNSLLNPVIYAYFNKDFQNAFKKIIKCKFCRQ
Description: PDSP Primary Binding target: HTR1A - Compounds are tested at 10 uM concentration, plate are incubated at room temperature in the dark for 90 minutes. Reaction are stopped by vacuum filtration onto 0.3% polyethyleneimine soaked filter mats using Filtermate harvester. Scintilation cocktail is then melted onto microwave-dried filters on a hot plate and the radio activity is counted in Microbia counter.

Experiment [11] concerns the target 5-hydroxytryptamine receptor 1B (Homo sapiens) (UniProt P28222).
Description: PDSP Primary Binding target: HTR1B - Compounds are tested at 10 uM concentration, plate are incubated at room temperature in the dark for 90 minutes. Reaction are stopped by vacuum filtration onto 0.3% polyethyleneimine soaked filter mats using Filtermate harvester. Scintilation cocktail is then melted onto microwave-dried filters on a hot plate and the radio activity is counted in Microbia counter.
The target in experiment [12] is 5-hydroxytryptamine receptor 2A (Homo sapiens) (UniProt P28223).
Description: PDSP Primary Binding target: HTR2A - Compounds are tested at 10 uM concentration, plate are incubated at room temperature in the dark for 90 minutes. Reaction are stopped by vacuum filtration onto 0.3% polyethyleneimine soaked filter mats using Filtermate harvester. Scintilation cocktail is then melted onto microwave-dried filters on a hot plate and the radio activity is counted in Microbia counter.
Experiment [13] concerns the target Kappa-type opioid receptor (Homo sapiens) (UniProt P41145).
Description: PDSP Primary Binding target: OPRK1 - Compounds are tested at 10 uM concentration, plate are incubated at room temperature in the dark for 90 minutes. Reaction are stopped by vacuum filtration onto 0.3% polyethyleneimine soaked filter mats using Filtermate harvester. Scintilation cocktail is then melted onto microwave-dried filters on a hot plate and the radio activity is counted in Microbia counter.

Kappa-type opioid receptor (Homo sapiens), sequence (P41145 whole entry): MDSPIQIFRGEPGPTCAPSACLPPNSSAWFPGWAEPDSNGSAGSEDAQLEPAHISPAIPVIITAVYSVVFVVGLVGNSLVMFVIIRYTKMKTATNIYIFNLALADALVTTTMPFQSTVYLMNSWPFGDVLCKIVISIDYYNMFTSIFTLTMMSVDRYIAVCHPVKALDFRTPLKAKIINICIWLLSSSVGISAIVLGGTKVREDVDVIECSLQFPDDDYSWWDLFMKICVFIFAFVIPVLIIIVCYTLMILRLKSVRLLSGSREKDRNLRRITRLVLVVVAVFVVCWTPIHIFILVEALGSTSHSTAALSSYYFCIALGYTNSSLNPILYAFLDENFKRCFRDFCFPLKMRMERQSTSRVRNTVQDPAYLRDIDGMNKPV
5-hydroxytryptamine receptor 1B (Homo sapiens), sequence (P28222 whole entry): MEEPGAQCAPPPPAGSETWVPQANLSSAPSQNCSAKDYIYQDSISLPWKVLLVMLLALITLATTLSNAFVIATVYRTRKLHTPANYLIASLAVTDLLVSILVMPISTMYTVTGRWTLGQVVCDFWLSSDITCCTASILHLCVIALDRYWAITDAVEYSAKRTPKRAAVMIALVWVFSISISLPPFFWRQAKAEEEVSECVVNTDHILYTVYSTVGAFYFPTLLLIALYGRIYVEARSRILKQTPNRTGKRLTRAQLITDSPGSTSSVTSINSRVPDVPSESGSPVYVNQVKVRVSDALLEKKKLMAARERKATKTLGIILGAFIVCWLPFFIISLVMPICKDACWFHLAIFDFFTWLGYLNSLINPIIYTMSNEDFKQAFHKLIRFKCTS
Beta-1 adrenergic receptor (Homo sapiens), sequence (P08588 whole entry, looked up): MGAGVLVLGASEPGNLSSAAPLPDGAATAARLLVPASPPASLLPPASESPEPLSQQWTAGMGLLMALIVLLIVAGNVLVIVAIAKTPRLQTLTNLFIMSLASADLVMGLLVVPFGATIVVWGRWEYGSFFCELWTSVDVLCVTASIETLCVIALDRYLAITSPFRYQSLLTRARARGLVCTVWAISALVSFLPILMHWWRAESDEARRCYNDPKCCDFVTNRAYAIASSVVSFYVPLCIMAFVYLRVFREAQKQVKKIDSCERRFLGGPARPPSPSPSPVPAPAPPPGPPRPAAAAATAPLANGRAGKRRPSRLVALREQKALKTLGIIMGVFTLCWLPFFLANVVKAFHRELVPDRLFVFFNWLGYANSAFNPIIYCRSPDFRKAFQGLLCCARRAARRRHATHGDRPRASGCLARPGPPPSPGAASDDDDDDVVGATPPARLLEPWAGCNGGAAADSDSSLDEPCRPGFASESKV
D(1B) dopamine receptor (Homo sapiens), sequence (P21918 whole entry): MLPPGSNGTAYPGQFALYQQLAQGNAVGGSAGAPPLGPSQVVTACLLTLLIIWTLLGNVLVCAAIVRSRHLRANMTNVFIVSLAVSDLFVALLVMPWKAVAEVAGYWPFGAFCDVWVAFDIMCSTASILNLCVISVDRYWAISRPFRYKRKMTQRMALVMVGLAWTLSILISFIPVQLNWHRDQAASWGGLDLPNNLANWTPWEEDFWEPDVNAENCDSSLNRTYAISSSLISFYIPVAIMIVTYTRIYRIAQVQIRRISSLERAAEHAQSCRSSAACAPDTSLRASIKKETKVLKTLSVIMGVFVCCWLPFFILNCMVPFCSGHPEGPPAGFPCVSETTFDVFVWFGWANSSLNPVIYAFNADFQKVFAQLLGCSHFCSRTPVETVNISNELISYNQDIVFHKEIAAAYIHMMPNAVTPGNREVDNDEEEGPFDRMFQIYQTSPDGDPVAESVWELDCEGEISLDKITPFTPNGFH
Histamine H3 receptor (Homo sapiens), sequence (Q9Y5N1 whole entry): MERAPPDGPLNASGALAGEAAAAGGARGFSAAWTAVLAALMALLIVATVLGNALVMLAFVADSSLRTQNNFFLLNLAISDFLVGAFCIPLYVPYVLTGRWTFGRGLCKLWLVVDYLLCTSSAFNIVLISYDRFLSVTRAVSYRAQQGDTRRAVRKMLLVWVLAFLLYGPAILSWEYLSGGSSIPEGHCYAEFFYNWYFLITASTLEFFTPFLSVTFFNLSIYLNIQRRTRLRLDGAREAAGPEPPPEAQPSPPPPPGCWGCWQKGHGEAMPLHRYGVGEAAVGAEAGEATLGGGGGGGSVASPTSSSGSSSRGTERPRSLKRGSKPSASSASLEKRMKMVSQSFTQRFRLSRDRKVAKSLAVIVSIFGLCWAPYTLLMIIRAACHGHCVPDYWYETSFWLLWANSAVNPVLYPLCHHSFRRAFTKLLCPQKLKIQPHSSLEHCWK
Beta-2 adrenergic receptor (Homo sapiens), sequence (P07550 whole entry, looked up): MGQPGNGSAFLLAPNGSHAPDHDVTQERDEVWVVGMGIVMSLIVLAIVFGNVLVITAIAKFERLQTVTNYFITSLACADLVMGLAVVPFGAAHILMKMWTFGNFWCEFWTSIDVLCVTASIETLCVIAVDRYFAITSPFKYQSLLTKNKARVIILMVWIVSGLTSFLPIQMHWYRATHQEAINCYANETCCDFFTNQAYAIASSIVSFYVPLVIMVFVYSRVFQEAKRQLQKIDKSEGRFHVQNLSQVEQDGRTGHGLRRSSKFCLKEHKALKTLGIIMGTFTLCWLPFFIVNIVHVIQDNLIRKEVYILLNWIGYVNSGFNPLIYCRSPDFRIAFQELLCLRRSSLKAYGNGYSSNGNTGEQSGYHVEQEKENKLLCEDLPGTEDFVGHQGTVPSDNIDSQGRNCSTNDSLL
D(3) dopamine receptor (Homo sapiens), sequence (P35462 whole entry): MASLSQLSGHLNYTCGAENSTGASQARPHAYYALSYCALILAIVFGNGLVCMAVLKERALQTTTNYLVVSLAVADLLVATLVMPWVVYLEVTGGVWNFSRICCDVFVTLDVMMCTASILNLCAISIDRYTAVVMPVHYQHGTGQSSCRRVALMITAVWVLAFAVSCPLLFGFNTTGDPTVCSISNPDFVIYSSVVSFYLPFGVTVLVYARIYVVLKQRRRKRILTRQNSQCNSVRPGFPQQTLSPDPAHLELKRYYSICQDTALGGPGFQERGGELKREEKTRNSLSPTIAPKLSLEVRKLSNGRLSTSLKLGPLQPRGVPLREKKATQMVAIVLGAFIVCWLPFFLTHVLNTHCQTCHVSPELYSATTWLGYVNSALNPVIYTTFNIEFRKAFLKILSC
5-hydroxytryptamine receptor 2A (Homo sapiens), sequence (P28223 whole entry): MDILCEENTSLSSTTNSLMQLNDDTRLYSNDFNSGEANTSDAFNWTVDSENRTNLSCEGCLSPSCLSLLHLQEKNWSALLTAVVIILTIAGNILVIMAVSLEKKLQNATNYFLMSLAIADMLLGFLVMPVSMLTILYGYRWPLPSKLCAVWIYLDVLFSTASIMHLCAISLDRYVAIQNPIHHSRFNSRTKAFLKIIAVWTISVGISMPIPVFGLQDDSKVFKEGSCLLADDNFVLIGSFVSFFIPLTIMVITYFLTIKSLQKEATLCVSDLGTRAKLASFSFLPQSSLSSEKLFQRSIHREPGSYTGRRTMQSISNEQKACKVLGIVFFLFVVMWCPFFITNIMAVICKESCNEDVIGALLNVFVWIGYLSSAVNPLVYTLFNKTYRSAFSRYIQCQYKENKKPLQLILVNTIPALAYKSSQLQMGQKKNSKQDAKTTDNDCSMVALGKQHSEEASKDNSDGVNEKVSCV

A word on the inhibition: it is the change of the read-out against control, counted positive when it falls. As to `O=S1(=O)c2cccc3cccc(c23)N1CCCN1CCN(c2ccc(F)cc2)CC1`, the inhibition was 98.1% in experiment [1]; 92% in [2]; 8.94% in experiment [3]; 21.3% in [4]; 1.66% in experiment [5]; 58.5% in [6]. The inhibition in [7] was 108%; in experiment [8] it was -1.71%; in [9], 45.5%; in experiment [10], 91.6%; in experiment [11], 31.4%; in experiment [12], 103%. Further, the inhibition in experiment [13] is 56%.
As for `CN1C2CCC1CC(OC(c1ccc(F)cc1)c1ccc(F)cc1)C2` (centres undefined), the inhibition is 96.5% in [1]; 91.5% in experiment [2]; 33% in experiment [3]; -6.19% in experiment [4]; 95.6% in [5]; 79.5% in experiment [6]. The inhibition in [7] is 21%; in experiment [8], 66.6%; in experiment [9], -0.82%; in experiment [10] it was 21.6%; in experiment [11], 27.7%; in experiment [12] it was 99.6%. The inhibition in experiment [13] was 65.7%.
As to `COC(=O)C1=C(C)NC(C)=C(C(=O)OCCCN2CCC(c3ccccc3)(c3ccccc3)CC2)[C@H]1c1cccc([N+](=O)[O-])c1`, the inhibition in experiment [1] is 98.6%; in [2] it was 83.9%; in [3], 31.8%; in [4], 22.1%; in experiment [5] it was 24.8%; in experiment [6] it was 81.8%. Also, the inhibition in [7] was 41.5%; in experiment [8] it was 51.8%; in experiment [9], 62.2%; in experiment [10] it was 83.7%; in experiment [11], 89.2%; in [12], -1.08%. Besides, in experiment [13], the inhibition was 95.6%.
`Clc1cccc(COc2cncc(N3CCNCC3)n2)c1`: the inhibition in experiment [1] was 26.2%; in experiment [2], 22.3%; in experiment [3] it was 50.8%; in [4], 32.6%; in [5], 85.7%; in [6] it was 79.6%. The inhibition was 42.2% in [7]; 11.8% in experiment [8]; 20.2% in [9]; 86% in experiment [10]; 89% in experiment [11]; 99% in experiment [12]. Further, in experiment [13], the inhibition was 28.3%.
In the case of `CCCCN1CCC(COC(=O)c2cc(Cl)c(N)c3c2OCCO3)CC1`, the inhibition in [1] was -1.39%; in experiment [2], 24.6%; in [3], 10.7%; in experiment [4], 14.1%; in [5], 5.81%; in experiment [6] it was 58.8%. In addition, the inhibition in experiment [7] is 24.9%; in experiment [8], -0.98%; in experiment [9] it was 32.8%; in experiment [10], -1.01%; in experiment [11] it was 35.3%; in experiment [12], 62.2%. In addition, the inhibition in experiment [13] was 7.01%.
Regarding `CN1C(=O)[C@@H](NC(=O)c2cc3ccccc3[nH]2)N=C(c2ccccc2)c2ccccc21`, the inhibition in experiment [1] is -6.37%; in experiment [2], -0.46%; in experiment [3], 13.8%; in experiment [4] it was 4.31%; in experiment [5], -8%; in [6], 26.4%. The inhibition is -8.65% in experiment [7]; -2.85% in experiment [8]; 5.34% in [9]; -1.26% in [10]; 27.2% in experiment [11]; 19.7% in experiment [12]. Besides, in [13], the inhibition was 30.7%.
For the compound `Cc1nc(-c2ccc(-c3ccc(C(=O)N4CCc5cc6c(cc54)C4(CCN(C)CC4)CO6)cc3)c(C)c2)no1`, the inhibition was 16.4% in [1]; 66.3% in [2]; -1.95% in experiment [3]; 10.4% in experiment [4]; 23% in experiment [5]; 18.8% in experiment [6]. For the same compound, the inhibition in experiment [7] was 16.6%; in experiment [8], 57.1%; in [9], 35.6%; in [10], 9.17%; in experiment [11], 95.1%; in experiment [12] it was 67.6%.
As to `CCN(CC)CCCCC1CCN(CC(=O)N2c3ccccc3C(=O)Nc3cccnc32)CC1`, the inhibition was -0.95% in experiment [1]; -4.13% in [2]; 4.03% in experiment [3]; 5.55% in [4]; 95.5% in [5]; 13.8% in [6]. Moreover, the inhibition in [7] was -8.29%; in experiment [8] it was 82.5%; in experiment [9], 43%; in [10], 0.4%; in experiment [11], 14.9%; in experiment [12], 9.83%.
As for `Oc1ccc2c3c1O[C@H]1c4[nH]c5c(c4C[C@@]4(O)[C@@H](C2)N(CC2CC2)CC[C@]314)C[C@@]1(O)[C@H]2Cc3ccc(O)c4c3[C@@]1(CCN2CC1CC1)[C@H]5O4`, the inhibition in [1] is -1.68%; in experiment [2], 4.88%; in experiment [3], 1.77%; in experiment [4] it was -6.53%; in experiment [5], -2.79%; in experiment [6] it was 4.68%. Further, the inhibition in experiment [7] is 14.9%; in experiment [8], -8.61%; in experiment [9] it was 6.5%; in experiment [11] it was 13.6%; in [12], 18.3%; in experiment [13], 105%.
